Counter-ions that a name gives are not always drawn.
Assays:
[1] = tested on: post-synaptic alpha1 -adrenergic receptors; conditions: prior art; cited from earlier work
hypertension = conditions: prior art; cited from earlier work
[2] = prior art; cited from earlier work
[3] = acute toxicity assay in rats; conditions: rat, in vivo, iv
DOCA-hypertensive rats = test: blood pressure reduction in nonanesthetized (conscious) DOCA-hypertensive rats; assay type: in vivo, rat
Method: (§1) Of particular interest in this respect are the compounds of formula I above. The hydrochlorides of these compounds afford up to more than 15% aqueous solutions. […] In addition, the compounds of formula I are extremely non-toxic.
(§2) A typical, highly advantageous compound of the invention is the corresponding 2-methyloxypropionyl derivative of formula I, in which n is 0 and both R and R1 are methyl groups. In nonanesthesized (conscious) DOCA-hypertensive rats, this compound in an oral dose of 1 mg/kg elicits a blood pressure reduction of 20%. A dramatic reduction in blood pressure, as much as 40-50%, is observed in the same animals at a dose of 10 mg/kg p.o. Similarly, in non-anesthesized normotensive monkeys (Macaca mulatta), a dose of 3 mg/kg p.o. reduces the blood pressure by 20%. A dose of 25 mg/kg p.o. reduces blood pressure by 35 to 50% for a period of 7 to 9 hours. An intravenous administration of 2.5 mg/kg as a bolus to monkeys reduces blood pressure by 30 to 50% for 1 hour. A similar administration of 10 mg/kg i.v. elicits a blood pressure reduction of 50 to 70% for more then 7 hours. In rabbits anesthesized by pentobarbital, a dose of 25 mg/kg p.o. reduces blood pressure by 20 to 40% for a period of 4 to 5 hours. In non-anesthesized rabbits, a dose as low as 0.1 mg/kg i.v. elicits a transient but significant blood pressure reduction of almost 20%, shortly after administration. […]

non-anesthesized rabbits = test: blood pressure reduction in non-anesthetized rabbits; assay type: in vivo, rabbit
Method: as §1, §2

[4] = tested on: normotensive monkeys (Macaca mulatta); test: blood pressure reduction in non-anesthetized normotensive monkeys; assay type: in vivo; conditions: for duration of blood pressure reduction: monkeys
Method: as §1
A typical, highly advantageous compound of the invention is the corresponding 2-methyloxypropionyl derivative of formula I, in which n is 0 and both R and R1 are methyl groups. In nonanesthesized (conscious) DOCA-hypertensive rats, this compound in an oral dose of 1 mg/kg elicits a blood pressure reduction of 20%. A dramatic reduction in blood pressure, as much as 40-50%, is observed in the same animals at a dose of 10 mg/kg p.o. Similarly, in non-anesthesized normotensive monkeys (Macaca mulatta), a dose of 3 mg/kg p.o. reduces the blood pressure by 20%. A dose of 25 mg/kg p.o. reduces blood pressure by 35 to 50% for a period of 7 to 9 hours. An intravenous administration of 2.5 mg/kg as a bolus to monkeys reduces blood pressure by 30 to 50% for 1 hour. A similar administration of 10 mg/kg i.v. elicits a blood pressure reduction of 50 to 70% for more then 7 hours. In rabbits anesthesized by pentobarbital, a dose of 25 mg/kg p.o. reduces blood pressure by 20 to 40% for a period of 4 to 5 hours. In non-anesthesized rabbits, a dose as low as 0.1 mg/kg i.v. elicits a transient but significant blood pressure reduction of almost 20%, shortly after administration. A dose of 1 mg/kg i.v. reduces the blood pressure by 20 to 30% for a period of more than 8 hours.

mice = test: acute toxicity assay in mice; assay type: in vivo, mouse; conditions: acute toxicity assays
Excerpt: as §1

[5] = acute toxicity assay in mice; assay type: in vivo, mouse; conditions: mouse, in vivo, iv, mice
Excerpt: as §1

Row | Structure (SMILES) | blocking of post-synaptic alpha1-adrenergic receptors [1] | antihypertensive activity (hypertension) | solubility in water [2] | LD50 [3] [mg/kg] | blood pressure reduction (DOCA-hypertensive rats; 1 mg/kg oral) [%] | reduction in blood pressure (DOCA-hypertensive rats; 10 mg/kg p.o.) | blood pressure reduction (non-anesthesized rabbits; 0.1 mg/kg i.v., transient, shortly after administration) [%] | duration of blood pressure reduction (non-anesthesized rabbits; 1 mg/kg i.v.) | duration of blood pressure reduction ([4]; 2.5 mg/kg i.v. bolus) [h] | blood pressure reduction ([4]; 3 mg/kg p.o., non-anesthetized monkeys) [%] | duration of blood pressure reduction ([4]; 10 mg/kg i.v.) [h] | toxicity (mice) | LD50 [5] [mg/kg]
1 | COc1cc2nc(N3CCN(C(=O)c4ccco4)CC3)nc(N)c2cc1OC [Prazosin, 1-(4-amino-6,7-dimethyoxy2-quinazolinyl)-4-(2-furoyl) piperazine hydrochloride] | blocking the post-synaptic alpha1 -adrenergic receptors | highly efficient antihypertensive compound | only slightly soluble in water |  |  |  |  |  |  |  |  |  | 
2 | COc1cc2nc(N3CCN(C(=O)C(C)OC)CC3)nc(N)c2cc1OC (stereo not shown) [2-methoxypropionyl derivative, 1-(4-amino-6,7-dimethoxy-2-quinazolinyl)-4-(2-methoxyproprionyl)piperazine] |  |  |  | 440 | 20 | 40-50% | ~20 | more than 8 hours | 1 | 20 | > 7 | extremely low in toxicity | 360
